# From patent publication US7132443B2, “Fluoropyrrolidines as dipeptidyl peptidase inhibitors” (SmithKlineBeecham Corporation, priority 2001, dated 2006)
# Counter-ions that a name gives are not always drawn. Like-named read-outs stand apart in the source and are kept apart here.
# Key:
# DPP-IV activity in serum [1] = molecular target: T1, DPP-IV activity in serum (Rattus norvegicus, UniProt P14740); assay: DPP-IV activity in serum of rats 6 hrs after oral dosing; type: in vivo; details: for inhibition at 1 mg/kg: rat, read-out: Percent DPP-IV inhibition At 6 hrs In Rats; for duration of action: rats, 6 hrs after 1 mg/kg oral
# T1 construct: from tissue; host or cells: serum/plasma of male CD rats dosed orally
# Experimental: Age and weight matched male CD rats were housed individually at 72° F. and 50% relative humidity with a 12 h light/dark cycle. Animals were dosed by oral gavage with vehicle (10 mM acetic acid) or 1 mg/kg test compound in vehicle. After 6 hrs administration of compound, the rats were anesthetized with isofluorane for cardiac blood collection. DPP-IV activity in serum was measured using the fluorogenic substrate Gly-Pro-AMC (50 mM) according to the manufacturers specification (Enzyme System Products, Livermore Calif.). The substrate was mixed with 50 mM Tris, pH 7.8, in plasma (20% final v/v) and the samples were incubated for 5–20 min at 30° C. DPP-IV activity was determined by measuring fluorescence using a cytofluor spectrofluoremeter with the filters set at 360 nm excitation and 460 nm emission. Averages and standard deviations from each group (n=3) were calculated using students t-test and compared to vehicle treated rats to determine percent inhibition as shown in Table 1.
# human DPP-IV = molecular target: T2, human DPP-IV (Homo sapiens, UniProt P27487); assay: DPP-IV assay (H-Ala-Pro-pNA hydrolysis, absorbance); type: biochemical
# T2 construct: The material was isolated from human prostasomes using the method of DeMeester et al; purchased Athens Research and Technology, Inc; host or cells: human prostasomes (natural source)
# Experimental: A 500 mM stock solution was prepared with dimethylsulfoxide and stored at −20° C. Gly-Pro-AMC was purchased from Enzyme System Products (product no. AMC-39) and stored at −20° C. as a 10 mM stock solution in dimethylsulfoxide. Test compounds were dissolved to 10 mM in dimethylsulfoxide and this was used as a stock solution for DPP-IV titration assays. Athens Research and Technology, Inc prepared the purified human DPP-IV. The material was isolated from human prostasomes using the method of DeMeester et al., J. Immunol.
# The average enzymatic activity from wells containing dimethylsulfoxide but lacking test compound was used as a control value for calculating percent inhibition. DPP-IV (20 ng/mL) was mixed in microtiter plates with test compounds, substrate and assay buffer to yield 100 μM H-Ala-Pro-pNA•HCl in 25 mM Tris, pH 7.5, 10 mM KCl, 140 mM NaCl. The intact peptide contains a p-nitrophenylanilide which, when hydrolyzed by DPP-IV, releases the absorbant p-nitrophenylaniline. […] The enzymatic activity was determined by estimating the best linear fit to the data. Values for enzymatic activity were taken directly from the linear fit determined by the software on the plate reader.
# Data Analysis: The enzymatic activity was determined by estimating the best linear fit to the data. Data reduction was performed using the Microsoft Excel RoboSage.
# Determination of Ki values: Ki values were calculated from IC50 values using equation 3 assuming a competitive model.
# [2] = Stability studies in Phosphate Buffered Saline by HPLC (cyclization/degradation half-life); details: PBS; for half-life: Phosphate Buffered Saline
# Description: (§1) An initial time point HPLC chromatogram is obtained followed by successive HPLC chromatograms at time points of 24, 48, 72, etc hours.
# (§2) The area under the drug substance peak is compared to the initial area for each chromatogram and plotted as percent remaining from initial time (t0).
# physchem = details: buffer, t1/2 at 37° C.
# Description: as §1, §2
# dogs = assay: Dose escalation studies in dogs, limiting gastrointestinal toxicity; type: in vivo
# Experimental: The dog is a common non-rodent species routinely used to satisfy regulatory requirements. The beagle was chosen to examine the safety of the compounds of the present invention because of the knowledge of this strain's general pathology and response to a wide variety of drugs. Dogs (Marshall Farms Inc., North Rose, N.Y., USA) from 9 to 12 months (5 to 12 kg) were dosed by oral gavage at 10 mL/kg/day with vehicle (10 mM acetic acid, pH 3.3) or test compound in vehicle. Each dose was followed by a flush of approximately 10 mL of water, once daily with 24–48 hours between each subsequent dose. If limiting gastrointestinal toxicity was not observed, the dose was increased 3-fold no sooner than approximately 24 hours after the preceding dose. Limiting GI toxicity includes diarrhea, loose or mucoid feces, blood in stool, and/or sloughing of the gut epithelium. Clinical observations were made at least three times daily during treatment (once prior to dosing, approximately one hour post dose, and once in conjunction with pm viability). DPP-IV activity in serum was measured using the fluorogenic substrate Gly-Pro-AMC (50 mM) according to the manufacturers specification (Enzyme System Products, Livermore Calif.). […] DPP-IV activity was determined by measuring fluorescence using a cytofluor spectrofluoremeter with the filters set at 360 nm excitation and 460 nm emission.
# DPP-IV activity in serum [3] = molecular target: T3, DPP-IV activity in serum (Canis lupus familiaris, UniProt A0A8I3Q2I8); assay: DPP-IV activity in serum of dogs after oral dosing; type: in vivo; details: dog, read-out: inhibited DPP4 12 hours after oral dosing
# T3 construct: The substrate was mixed with 50 mM Tris, pH 7.8, in serum (20% final v/v); from tissue; host or cells: serum of beagle dogs dosed orally
# [4] = Table I, read-out: IC50 (nM) Human DPP-IV
# [5] = human DPP-IV, text b860, read-out: IC50 values
# T2 sequence (P27487 whole entry): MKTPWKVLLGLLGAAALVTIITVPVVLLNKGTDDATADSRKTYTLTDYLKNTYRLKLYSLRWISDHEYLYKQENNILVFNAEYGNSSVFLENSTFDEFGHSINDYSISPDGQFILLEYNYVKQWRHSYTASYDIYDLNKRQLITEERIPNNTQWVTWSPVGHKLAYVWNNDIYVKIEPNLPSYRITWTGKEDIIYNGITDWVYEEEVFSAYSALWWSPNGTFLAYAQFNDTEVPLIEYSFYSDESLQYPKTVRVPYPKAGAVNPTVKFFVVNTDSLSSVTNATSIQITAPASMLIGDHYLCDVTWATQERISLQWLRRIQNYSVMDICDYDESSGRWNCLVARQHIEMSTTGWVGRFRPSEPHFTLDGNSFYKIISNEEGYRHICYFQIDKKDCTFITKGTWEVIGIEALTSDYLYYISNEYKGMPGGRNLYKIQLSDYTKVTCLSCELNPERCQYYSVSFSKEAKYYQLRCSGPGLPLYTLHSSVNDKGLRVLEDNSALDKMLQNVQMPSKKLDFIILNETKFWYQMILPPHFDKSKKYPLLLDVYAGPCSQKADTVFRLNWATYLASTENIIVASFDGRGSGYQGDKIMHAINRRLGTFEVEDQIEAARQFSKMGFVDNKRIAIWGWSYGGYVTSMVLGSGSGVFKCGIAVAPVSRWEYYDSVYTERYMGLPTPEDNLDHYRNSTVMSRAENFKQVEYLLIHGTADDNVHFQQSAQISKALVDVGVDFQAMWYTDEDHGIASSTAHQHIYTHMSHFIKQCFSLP
# T1 sequence (P14740 37-767 limits assumed): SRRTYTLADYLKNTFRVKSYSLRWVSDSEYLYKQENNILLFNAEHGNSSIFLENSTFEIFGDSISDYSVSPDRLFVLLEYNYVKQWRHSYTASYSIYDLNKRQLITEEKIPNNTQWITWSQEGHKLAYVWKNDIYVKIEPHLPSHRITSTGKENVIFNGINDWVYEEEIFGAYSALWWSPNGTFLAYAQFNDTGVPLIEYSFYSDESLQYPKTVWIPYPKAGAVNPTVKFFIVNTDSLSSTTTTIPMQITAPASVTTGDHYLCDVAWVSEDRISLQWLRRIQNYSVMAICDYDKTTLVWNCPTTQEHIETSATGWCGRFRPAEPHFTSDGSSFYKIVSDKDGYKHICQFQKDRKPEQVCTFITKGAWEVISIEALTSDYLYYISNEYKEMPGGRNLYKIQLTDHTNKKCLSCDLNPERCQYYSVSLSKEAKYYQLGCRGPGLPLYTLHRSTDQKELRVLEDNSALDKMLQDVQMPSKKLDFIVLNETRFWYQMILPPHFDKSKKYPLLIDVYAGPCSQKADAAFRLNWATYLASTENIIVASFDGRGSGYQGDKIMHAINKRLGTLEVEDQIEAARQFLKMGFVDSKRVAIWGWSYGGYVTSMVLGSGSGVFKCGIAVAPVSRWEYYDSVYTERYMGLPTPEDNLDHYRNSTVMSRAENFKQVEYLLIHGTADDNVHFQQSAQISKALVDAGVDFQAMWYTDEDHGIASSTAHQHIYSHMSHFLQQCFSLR
# T3 sequence (A0A8I3Q2I8 1-765): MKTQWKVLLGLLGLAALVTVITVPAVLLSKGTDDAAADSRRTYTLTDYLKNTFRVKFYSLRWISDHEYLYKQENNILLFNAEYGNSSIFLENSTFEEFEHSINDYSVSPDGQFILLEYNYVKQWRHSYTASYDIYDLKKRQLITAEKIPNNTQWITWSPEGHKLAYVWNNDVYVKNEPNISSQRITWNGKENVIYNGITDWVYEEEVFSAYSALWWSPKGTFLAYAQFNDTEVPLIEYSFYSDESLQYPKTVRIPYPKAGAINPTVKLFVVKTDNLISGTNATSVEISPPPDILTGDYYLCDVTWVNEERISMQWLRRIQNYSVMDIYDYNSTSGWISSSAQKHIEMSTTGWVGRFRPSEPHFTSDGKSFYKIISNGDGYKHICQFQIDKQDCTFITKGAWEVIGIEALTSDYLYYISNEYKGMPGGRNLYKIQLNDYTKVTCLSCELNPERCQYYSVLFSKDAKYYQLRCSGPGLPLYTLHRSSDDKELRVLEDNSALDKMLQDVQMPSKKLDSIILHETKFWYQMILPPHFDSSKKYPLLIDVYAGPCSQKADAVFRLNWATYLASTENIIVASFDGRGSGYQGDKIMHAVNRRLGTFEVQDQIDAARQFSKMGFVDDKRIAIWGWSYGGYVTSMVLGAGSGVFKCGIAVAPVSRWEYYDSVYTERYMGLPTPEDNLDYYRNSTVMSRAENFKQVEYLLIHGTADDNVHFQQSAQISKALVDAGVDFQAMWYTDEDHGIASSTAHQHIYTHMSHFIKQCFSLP
smiles,measurement,setting,value
N#C[C@@H]1C[C@H](F)CN1C(=O)[C@@H](N)CCC(=O)O [Comparison Example 2],inhibition at 1 mg/kg,DPP-IV activity in serum [1]; po,32 ± 3%
same,duration of action,DPP-IV activity in serum [1],poor level of duration
same,IC50,human DPP-IV; [4],3 nM
same,IC50,human DPP-IV; [5],< 5.6 nM
CC[C@H](C)[C@H](N)C(=O)N1C[C@@H](F)C[C@H]1C#N [Comparison Example 3],half-life,"[2]; t1/2 at 23° C., ambient room temperature 23° C.",47 h
same,half-life,"[2]; t1/2 at 37° C. (calc.), calculated for 37° C. from value measured at 23° C.",23 h
"N#C[C@@H]1C[C@H](F)CN1C(=O)[C@@H](N)C(c1ccc(F)cc1)c1ccc(F)cc1 [Example 2, (2S,4S)-1-[(2S)-2-Amino-3,3-bis(4-fluorophenyl)propanoyl]-4-fluoropyrrolidine-2-carbonitrile hydrochloride]",half-life,physchem,266 h
same,inhibition at 1 mg/kg,"DPP-IV activity in serum [1]; 1 mg/kg oral gavage, male CD rats, serum, 6 hrs, vs vehicle",68 ± 4%
same,"gastrointestinal toxicity, dose escalation in dogs","dogs; dog, in vivo",no adverse affects on gastrointestinal toxicity
same,inhibition at 0.5 mg/kg,"DPP-IV activity in serum [3]; dogs, 0.5 mg/kg oral, 12 hours, serum",45%
"COc1ccc(CS(=O)(=O)C(C)(C)[C@H](N)C(=O)N2C[C@@H](F)C[C@H]2C#N)cc1 [Example 9, (2S,4S)-1-{(2R)-2-Amino-3-[(4-methoxybenzyl)sulfonyl]-3-methylbutanoyl}-4-fluoropyrrolidine-2-carbonitrile hydrochloride]",t1/2 at 37° C.,[2]; 37° C.,1733 h
N#C[C@@H]1CCCN1C(=O)[C@@H](N)C(c1ccc(F)cc1)c1ccc(F)cc1 [Comparison Example 6],% DPP-IV Inhibition @ 6 Hrs. In Rats,"DPP-IV activity in serum [1]; Table 3, rats, 6 Hrs.",15 ± 1%
CC(C)(C)[C@H](N)C(=O)N1C[C@@H](F)C[C@H]1C#N [Comparison Example 5],inhibition at 1 mg/kg,DPP-IV activity in serum [1]; po,71 ± 13%
same,"gastrointestinal toxicity, dose escalation in dogs",dogs; 0.3 mg/kg oral gavage,loose/mucoid feces with traces of blood
same,inhibition at 0.2 mg/kg,DPP-IV activity in serum [3]; po,2%
same,IC50,human DPP-IV; [4],3 nM
CC(C)[C@H](N)C(=O)N1C[C@@H](F)C[C@H]1C#N [Comparison Example 1],inhibition at 1 mg/kg,DPP-IV activity in serum [1]; po,32 ± 3%
same,duration of action,DPP-IV activity in serum [1],poor level of duration
same,IC50,human DPP-IV; [4],1.3 nM
same,IC50,human DPP-IV; [5],< 5.6 nM
